Assay results as given in patent US20110053947A1, “Arylchalcogenoarylalkyl-substituted imidazolidine-2,4-diones, process for preparation thereof, medicaments comprising these compounds and use thereof” (SANOFI-AVENTIS, priority 2008, published 2011).
Where a name gives a salt, the structure may show the parent alone. Read-outs that look alike come from different tables or passages of the source.

Key:
[1] = target: T1, CHO-K1/cannabinoid CB1 (hCB1R) (Homo sapiens, UniProt P21554); assay: Binding to the CB1 receptor ([3H]-SR141716A displacement)
T1 construct: expressed in transfected cells; host or cells: CHO-K1
T1 sequence (P21554 whole entry): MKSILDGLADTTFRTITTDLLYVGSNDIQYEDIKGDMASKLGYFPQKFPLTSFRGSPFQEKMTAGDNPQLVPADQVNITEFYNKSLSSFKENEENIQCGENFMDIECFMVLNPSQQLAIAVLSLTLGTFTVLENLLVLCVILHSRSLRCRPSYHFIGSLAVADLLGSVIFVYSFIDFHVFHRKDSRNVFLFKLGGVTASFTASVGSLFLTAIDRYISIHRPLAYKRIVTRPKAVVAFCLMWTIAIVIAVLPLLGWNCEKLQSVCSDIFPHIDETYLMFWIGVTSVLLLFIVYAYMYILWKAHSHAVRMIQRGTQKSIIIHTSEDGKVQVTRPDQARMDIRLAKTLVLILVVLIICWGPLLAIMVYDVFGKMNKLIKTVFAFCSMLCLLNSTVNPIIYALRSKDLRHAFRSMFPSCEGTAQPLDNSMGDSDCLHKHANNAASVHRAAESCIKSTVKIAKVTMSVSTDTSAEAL
Experimental: Binding to the CB 1 Receptor:
Test compounds: The compounds (3 μl, 10 mM, 100% DMSO), pipetted into 96-well PP microtiter plates, were diluted with 27 μl of 100% DMSO (dimethyl sulfoxide). Proceeding from this solution, further 3-fold dilution steps were undertaken by transferring 10 μl in each case to a new PP microtiter plate and adding a further 20 μl of 100% DMSO. In each case 6 μA of these solutions were transferred into new 96-well PP microtiter plates and made up with 144 μl of assay buffer. The end concentrations ranged from 10 μM to 0.005 μM. Negative control: AM 251, dissolved in assay buffer with 1% DMSO, was added to the dilution series in the microtiter plates as a control. The end concentration was 1 μM. Blank control: assay buffer with 1% DMSO was added to the dilution series of the microtiter plates as a blank control.
Summary of the Assay Parameters:
The values were calculated using the corrected raw data.
The values reported were obtained as average values of a double determination. The IC50 values were calculated from the measurements with the program Xlfit, formula 205. Ki values were obtained from the IC50 and Kd values utilizing the Cheng-Prusoff equation: […]
Literature: Cheng, Y.-C., and Prusoff, W. H. (1973) Biochem. Pharmacol 22, 3099-3108 Results: Ki values of example compounds; Table 2: […]

[2] = target: T2, cannabinoid 2 receptor (hCB2R) (Homo sapiens, UniProt P34972); assay: In vitro functional assay with recombinant cells (FLIPR), CB2; assay type: cell-based
T2 construct: expressed in transfected cells; host or cells: HEK293
T2 sequence (P34972 whole entry): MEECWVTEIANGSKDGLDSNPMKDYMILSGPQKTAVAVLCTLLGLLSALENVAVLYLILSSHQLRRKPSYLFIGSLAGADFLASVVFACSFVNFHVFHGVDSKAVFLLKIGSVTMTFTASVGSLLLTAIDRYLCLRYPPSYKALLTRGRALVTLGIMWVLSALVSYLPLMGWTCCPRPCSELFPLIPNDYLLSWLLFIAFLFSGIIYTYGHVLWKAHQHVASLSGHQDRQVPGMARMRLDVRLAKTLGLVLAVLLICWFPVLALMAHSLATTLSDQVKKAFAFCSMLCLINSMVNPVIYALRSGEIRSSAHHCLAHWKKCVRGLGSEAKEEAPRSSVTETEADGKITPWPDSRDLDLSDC
Experimental: (§1) In vitro functional assays with recombinant cells:
(§2) Function-testing assays were performed by means of the FLIPR technique (“Fluorometric Imaging Plate Reader”, Molecular Devices Corp.).
(§3) To this end, ligand-induced changes in the intracellular concentration of Ca^2+ in recombinant HEK293 cells, which expressed both a cannabinoid receptor (CB1 or CB2) and G-protein Galphal6, were determined. For the studies, cells were sown into 96-well microtiter plates (60 000 cells/well) and left to grow overnight. The medium was removed and the cells were incubated in buffer which contained the fluorescent dye Fluo-4. After this loading with dye, the cells were washed, test substance was added dissolved in buffer, the mixture was incubated for 20 minutes, a known cannabinoid receptor agonist as a reference agonist was added in buffer and, finally, the changes in the intracellular Ca^2+ concentration were measured in the FLIPR unit.

[3] = target: T3, cannabinoid 1 receptor (hCB1R) (Homo sapiens, UniProt P21554); assay: In vitro functional assay with recombinant cells (FLIPR), CB1; assay type: cell-based; conditions: intracellular Ca2+ change after reference agonist, 20 min preincubation
T3 construct: expressed in transfected cells; host or cells: HEK293
T3 sequence (P21554 whole entry): as the sequence (P21554 whole entry) above
Experimental: as §1, §2, §3
Results were presented as the percentage change relative to the control (0%: analogous experiment without test substance and without reference agonist, i.e. only with buffer; 100%: analogous experiment without test substance, but with reference agonist in excess), and used to calculate dose/action curves, and IC50 values were determined.
The values of the functional assay compared to the cannabinoid 1 receptor including illustrative selectivities compared to the cannabinoid 2 receptor can be taken from table 1 which follows.

[4] = target: T4, cannabinoid CB1 receptor (CB1) (Mus musculus, UniProt P47746); assay: Antagonization of CB1-mediated hypothermia; assay type: in vivo; conditions: female NMRI mice; 1.25 mg/kg intraperitoneally; within 30 min
T4 construct: from tissue; host or cells: whole animal (female NMRI mice)
T4 sequence (P47746 whole entry): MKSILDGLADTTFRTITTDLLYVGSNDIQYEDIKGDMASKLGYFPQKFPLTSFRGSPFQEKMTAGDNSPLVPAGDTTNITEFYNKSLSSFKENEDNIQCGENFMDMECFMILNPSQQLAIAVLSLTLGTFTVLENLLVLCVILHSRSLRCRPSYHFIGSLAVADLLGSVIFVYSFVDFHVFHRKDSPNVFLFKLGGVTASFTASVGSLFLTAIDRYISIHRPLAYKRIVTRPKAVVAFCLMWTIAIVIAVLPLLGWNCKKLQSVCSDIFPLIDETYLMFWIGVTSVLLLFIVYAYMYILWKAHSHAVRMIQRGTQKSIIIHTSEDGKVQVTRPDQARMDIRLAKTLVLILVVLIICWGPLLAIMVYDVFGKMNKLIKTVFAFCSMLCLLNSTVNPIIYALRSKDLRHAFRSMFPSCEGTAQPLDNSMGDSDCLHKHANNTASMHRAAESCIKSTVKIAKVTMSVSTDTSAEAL
Experimental: “Antagonization of CB 1-mediated Hypothermia”
The test is used to measure the potency of cannabinoid CB1 receptor (CB1) antagonists. What is measured is the extent to which the CB1 antagonists to be tested are capable of preventing or of antagonizing hypothermia induced by a CB1 agonist.
Female NMRI mice, 25-35 g in weight, are used. The mice are accustomed to the housing conditions for at least one week.
At time 0 min, the animals are treated orally, intravenously or intraperitoneally with the CB1 antagonist to be tested. 30 min later, the CB1 agonist CP55.940, 1.25 mg/kg, is administered to the mice intraperitoneally. This brings about a fall in the body temperature by 5-6° C. within 30 min. The body temperature is measured rectally for the first time 30 min before the test substance administration and then every 30 min after this administration, if appropriate immediately before a substance administration, over 4 hours.
The potency of the test substances is reported as the percentage decrease in the area under the temperature-time curve which is formed firstly by the average basal temperature, and secondly by the temperature-time curve, of the animals treated exclusively with the CB1 antagonist.

[5] = [3H]-SR141716A 0.5 nM, Ki from IC50 and Kd by Cheng-Prusoff, average of double determination, read-out: hCB1R, Bindung Ki
[6] = recombinant HEK293 cells expressing CB1 and G-protein, read-out: hCB1R: FLIPR, IC50
[7] = recombinant HEK293 cells expressing CB2 and G-protein, intracellular Ca2+ change after reference agonist, 20 min preincubation, read-out: hCB2R: FLIPR, IC50
[8] = hCB1R: FLIPR, IC50, recombinant HEK293 cells expressing CB1 and G-protein

Question: What does the source list for `CC1(C)C(=O)N(c2ccc(C#N)c(C(F)(F)F)c2)C(=O)N1Cc1ccccc1NC(=O)Nc1ccc(S(N)(=O)=O)cc1` [Example 1, 4-(3-{2-[3-(4-Cyano-3-trifluoromethylphenyl)-5,5-dimethyl-2,4-dioxo-imidazolidin-1-ylmethyl]phenyl}ureido)benzenesulfonamide]?
Answer: Ki [1, 5]: 20 nM; IC50 [2]: > 10000 nM; IC50 [3, 6]: 24 nM

Question: For `CC1(C)C(=O)N(c2ccc(C#N)c(C(F)(F)F)c2)C(=O)N1Cc1ccccc1NC(=O)Nc1cccc(C#N)c1` [Example 8, 1-(3-cyanophenyl)-3-{2-[3-(4-cyano-3-trifluoromethylphenyl)-5,5-dimethyl-2,4-dioxoimidazolidin-1-ylmethyl]phenyl}urea], which IC50 [2, 7] is on record?
Answer: The IC50 was > 10000 nM.

Question: And the IC50 [3, 8]?
Answer: Its IC50 is 35 nM.

Question: Which IC50 [2] does the source give for `CCOc1ccc(NC(=O)Nc2ccccc2CN2C(=O)N(c3ccc(C#N)c(C(F)(F)F)c3)C(=O)C2(C)C)cc1` [Example 10, 1-{2-[3-(4-cyano-3-trifluoromethylphenyl)-5,5-dimethyl-2,4-dioxoimidazolidin-1-ylmethyl]phenyl}-3-(4-ethoxyphenyl)urea] here?
Answer: The IC50 was > 10000 nM.

Question: What about the IC50 [3, 6] of the same compound?
Answer: Its IC50 is 53 nM.

Question: How did the IC50 [2, 7] turn out when `CC1(C)C(=O)N(c2ccc(C#N)c(C(F)(F)F)c2)C(=O)N1Cc1ccccc1NC(=O)Nc1ccc(S(=O)(=O)O)cc1` [Example 2, 4-(3-{2-[3-(4-cyano-3-trifluoromethylphenyl)-5,5-dimethyl-2,4-dioxoimidazolidin-1-ylmethyl]phenyl}ureido)benzenesulfonic acid] was run?
Answer: Its IC50 is > 10000 nM.

Question: What about the IC50 [3, 6] of the same compound?
Answer: The IC50 was 220 nM.

Question: How did the Ki [1, 5] turn out when `CC1(C)C(=O)N(c2ccc(C#N)c(C(F)(F)F)c2)C(=O)N1Cc1ccc(F)cc1NC(=O)Nc1ccnc(O)c1` [Example 43, 1-{2-[3-(4-cyano-3-trifluoromethylphenyl)-5,5-dimethyl-2,4-dioxoimidazolidin-1-ylmethyl]-5-fluorophenyl}-3-(2-hydroxypyridin-4-yl)urea] was run?
Answer: Its Ki is 17 nM.

Question: What about the IC50 [3, 6] of the same compound?
Answer: The IC50 was 27 nM.

Question: `CCCCCCC(C)(C)c1ccc([C@@H]2C[C@H](O)CC[C@H]2CCCO)c(O)c1` [CP55.940] was tested. Which “fall in the body temperature” value [4] did it give?
Answer: Its value is 5-6 °C.

Question: Which results are given for `COC(=O)CSc1ccc(NC(=O)Nc2cc(F)ccc2CN2C(=O)N(c3ccc(C#N)c(C(F)(F)F)c3)C(=O)C2(C)C)cc1` [Example 49]?
Answer: Ki [1, 5]: 11 nM; IC50 [3, 6]: 2 nM

Question: With `CC1(C)C(=O)N(c2ccc(C#N)c(C(F)(F)F)c2)C(=O)N1Cc1ccccc1NC(=O)Nc1ccc(C(=O)O)cc1` [Example 4, 4-(3-{2-[3-(4-Cyano-3-trifluoromethylphenyl)-5,5-dimethyl-2,4-dioxo-imidazolidin-1-ylmethyl]phenyl}ureido)benzoic acid] as the compound, how does the IC50 [2, 7] read?
Answer: The IC50 was > 10000 nM.

Question: What about the IC50 [3, 6] of the same compound?
Answer: The IC50 was 109 nM.

Question: What does the source list for `CC1(C)C(=O)N(c2ccc(C#N)c(C(F)(F)F)c2)C(=O)N1Cc1ccccc1NC(=O)Nc1ccc(C#N)cc1` [Example 6, 1-(4-cyanophenyl)-3-{2-[3-(4-cyano-3-trifluoromethylphenyl)-5,5-dimethyl-2,4-dioxoimidazolidin-1-ylmethyl]phenyl}urea]?
Answer: IC50 [2, 7]: > 10000 nM; IC50 [3, 8]: 11 nM

Question: How did the Ki [1, 5] turn out when `CC1(C)C(=O)N(c2ccc(F)c(C(F)(F)F)c2)C(=O)N1Cc1ccc(F)cc1NC(=O)Nc1ccc(N)cc1` [Example 23, 1-(4-Aminophenyl)-3-{5-fluoro-2-[3-(4-fluoro-3-trifluoromethylphenyl)-5,5-dimethyl-2,4-dioxoimidazolidin-1-ylmethyl]phenyl}urea hydrochloride] was run?
Answer: The Ki was 17 nM.

Question: How did the Ki [1] turn out when `COC(=O)c1ccc(NC(=O)Nc2ccccc2CN2C(=O)N(c3ccc(C#N)c(C(F)(F)F)c3)C(=O)C2(C)C)cc1` [Example 3, methyl 4-(3-{2-[3-(4-cyano-3-trifluoromethylphenyl)-5,5-dimethyl-2,4-dioxoimidazolidin-1-ylmethyl]phenyl}ureido)benzoate] was run?
Answer: The Ki was 11 nM.

Question: What about the IC50 [2, 7] of the same compound?
Answer: The IC50 was > 10000 nM.

Question: What about the IC50 [3, 8] of the same compound?
Answer: Its IC50 is 19 nM.
